Source: patent US20250032388A1, “PERSONAL CARE COMPOSITIONS FOR SENSITIVE SKIN AND METHODS OF USE” (Galderma Holding SA, priority 2022, published 2025)

Tested on: NADPH oxidase
Test: NADPH-oxidase activity in pollution-exposed fibroblasts (Example 6)
Type: cell-based, human
Method: Method: Cells are incubated for 30 minutes with the test elements (either pollutant or Composition A). NADPH oxidase activity is determined immediately using chemioluminescence. Conditions: Untreated and unexposed to pollution, Untreated and exposed to pollution and Treated with personal care composition and exposed to pollution. As a comparison to the personal care composition, niacinamide was tested at low concentration (“niacinamide (low)”) and high concentration (“niacinamide (high)”) in DMSO. (The high niacinamide concentration was 6.67 times the low niacinamide concentration.) Composition B was diluted until its niacinamide concentration was the same as the niacinamide (low) concentration. The cells used in the study were human primary fibroblasts originating from a healthy donor. As in Example 5, the pollutant was urban standardized particles composed with metals, polyaromatic hydrocarbons (PAHs), nitro-PAHs, PCBs, chlorinated pesticide, etc., of micrometric diameter. NADPH-oxidase activity and mitochondrial associated membranes (MAMs) were experimentally determined and quantified in the same manner as in Example 5.

In the case of niacinamide, the “NADPH oxidase activity relative to NE-NTC” value (niacinamide (high) concentration, 6.67 times the low) is reported as “level below that observed in NE-NTC” and the “NADPH oxidase activity relative to NE-NTC” value (niacinamide (low) concentration, Composition B diluted to the same niacinamide concentration) is reported as “level similar to that observed in the NE-NTC”.
